Assay [1] has as its system SIRPα^−/− and CD47^−/− mice. The experiment in a line: Acute anemia and splenomegaly in mice deficient of CD47-SIRPα-mediated inhibition under inflammatory conditions. Type of assay: in vivo, mouse. The note with it: colitic SIRPα^−/− mice; 1% DSS, 10 days. An excerpt:
FIGS. 1A-1K illustrate our assessment of acute anemia in mice deficient of CD47-SIRPα-mediated inhibition under inflammatory conditions. FIG. 1A includes a schematic drawing of a wild type (WT) and targeted allele of SIRPα (“SIRPα”) and data related to the generation of SIRPα “knock out” (KO) mice. […] Western blot (WB) analysis confirmed the depletion of SIRPα (˜120 kDa) protein in bone marrow leukocytes from SIRPα^−/− mice. FIG. 1B includes a photograph of intestinal tissue and a line graph charting the change in body weight of mice in which colitis had been induced by treatment with 1% or 2% DSS. […] FIGS. 1C and 1D include data related to acute anemia and splenomegaly developed in SIRPα^−/− mice with colitis. WT mice and SIRPα^−/− mice treated with DSS (2% DSS for WT and 1% DSS for SIRPα^−/−) for 10 days were analyzed for the presence of […] (FIG. 1C) and the content of hemoglobin in peripheral blood (FIG. 1D). FIG. 1E includes a panel of photomicrographs in which hematoxylin and eosin (H&E) was used to stain sections of spleens from WT and SIRPα^−/− mice treated with 2% and 1% DSS for 10 days. The bar graph of FIG. 1E illustrates the hemoglobin content in the spleens of WT and SIRPα^−/− mice treated with water or DSS. FIG. 1F is a pair of line graphs showing the time course over which anemia developed in SIRPα^−/− mice when colitis was induced with DSS and the levels of IL-17 in the serum over that same period of time. FIG. 1G is a diagram showing that IL-17 neutralization ameliorates anemia and splenomegaly in SIRPα^−/− mice with colitis. An anti-IL-17 antibody (10 μg, i.v.) was given on days 6 and 8 (arrows) during DSS-induction of colitis. FIG. 1H is a diagram showing that IL-17-containing colitic serum induces acute anemia in SIRPα^−/− mice. Serum samples collected from healthy (Ctl.) and colitic WT mice (2% DSS, 10 d) were administered to healthy SIRPα^−/− mice (i.v., 3×, arrows) with or without an anti-IL-17 antibody. FIGS. 1I and 1J are illustrative graphs showing that IL-17 directly induces acute anemia and splenomegaly in SIRPα^−/− mice and Cd47^−/− mice. Healthy mice were given recombinant IL-17 (10 μg/kg, i.v.) on days 1 and 3 (arrows, FIG. 1J); anemia and splenomegaly were analyzed on day 5 (FIG. 1I) or in a time course manner (FIG. 1J). FIG. 1K includes diagrams showing that acute anemia and splenomegaly in SIRPα^−/− and Cd47^−/− mice under zymosan-peritonitis (3×, every other day), IL-6 administration ([…], i.v.), LPS (0.25 mg/kg, i.p.), and CFA (1×, s.c.) administrations. Error bars are ±SEM **P<0.01, ***P<0.001 vs. control or the beginning time point. Data presented in each panel represent at least three independent experiments with n≥4, if applicable.
Hemoglobin assay: To assay blood hemoglobin, 10 μl of whole blood were obtained from the tail vein followed by lysis in 1 ml distilled water. After centrifugation (13,000 rpm, 30 min), the hemoglobin-containing supernatants were collected and measured for the optical density at the wavelength of 540 nm.
Animal inflammation models: To induce peritonitis, mice (6-8 wk, 20-22 g) were intraperitoneally injected with 0.5 mg zymosan A (Sigma) in 0.5 ml sterile PBS followed by euthanasia at 2, 4, 6 and 8 hours. […] The colitic condition was then assessed by observing diarrhea, measuring body weight loss, increases of inflammatory cytokines, the shortage of the large intestine and intestinal tissue analyses (after euthanasia). […]

Assay [2] relates to CFSE-labeled CD47^+ or CD47^− RBCs in recipient mice. As to the kind of experiment: RBC adoptive transfer and in vivo clearance of CFSE-labeled RBCs. The note with it: SIRPα^−/− mice; 1% DSS for 8 d or directly injected with IL-17; 24 h. Details: species or system mouse. From the text: FIGS. 2A-2E includes data related to macrophage phagocytosis in vivo assessed by adoptive transfer experiments. FIGS. 2A-C are illustrative graphs showing clearance of adoptively transferred CD47-positive (Cd47^+) or CD47-negative (Cd47^−) RBC in recipient mice. […] Error bars are ±SEM. **P<0.01, ***P<0.001 vs. WT mice clearance of Cd47^+ RBCs. […] Mice treated with DSS (1% for SIRPα^−/− mice, 2% for WT and Cd47^−/− mice) for 8 d (d8) were transfused with CFSE-RBCs followed by determination of RBC clearance after 24 h. FACS data of Cd47^+ RBCs and Cd47^− RBCs in different mice at 30 min and 24 h after transfer were selectively shown. Total RBC phagocytosis was calculated based on the rates of CFSE-RBC clearance and the fact that SIRPα^−/− mice eliminate both Cd47^− RBC and Cd47^+ RBC, whereas WT mice and Cd47^−/− mice eliminate only Cd47^− RBCs. […] Mice treated once with IL-17 (10 μg/kg, i.v.) were transfused with CFSE-labeled Cd47^+ or Cd47^− RBCs a day later. Error bars are ±SEM. **P<0.01, ***P<0.001 vs. control or the initial time point. Data presented in each panel represent at least three independent experiments with n≥4, if applicable.
Adoptive transfer and in vivo clearance: CD47-expressing (CD47^+) RBC freshly collected from WT or SIRPα^−/− mice, and CD47-null (CD47^−) RBC collected from CD47^−/− mice were labeled with carboxyfluorescein succinimidyl ester (CFSE). After washing, about 1×10^9 RBC suspended in 200 μl sterile PBS were transfused into recipient mice by intravenous (i.v.) injection. Blood samples (5 μl) were then collected 30 min after the blood transfusion and the CFSE-labeled RBC in the circulation was assessed by FACS analyses. Blood samples (5 μl each) were then collected at later time points to assess the clearance of CFSE-labeled RBC as compared to that found at 30 min. For each sample, at least 50,000 RBC were examined by FACS. […] Clearance of CFSE-labeled cells in the circulation and the spleen were analyzed by FACS analyses of blood samples and splenocytes. […]

For assay [3], the system named is Syk. As to the kind of experiment: Syk phosphorylation at Y519/520 in PEMs. It is filed as cell-based, mouse. Here is the method:
FIGS. 5A-5H include data related to our experiments on the role of Syk in phagocytic activation. […] PEMs were treated with LPS and cytokines in the presence of various inhibitors. After washing, inhibitor-free macrophages were tested for phagocytosis toward RBCs. […] PEMs treated with LPS and activating cytokines, or together with IL-10, were tested for total Syk and phosphorylated Syk (Syk^pY, specific at Y519/520). FIG. 5D describes PMA-induced macrophages phagocytosis toward RBCs. WT and SIRPα^−/− PEMs were treated with PMA (37° C., 30 min) before testing phagocytosis toward RBCs. FIG. 5E is a schematic depiction of PKC-Syk-mediated macrophage phagocytic activation toward self. […] Left: Inhibition of Syk by piceatannol and R406 prevented PMA-induced phagocytic activation. […] Error bars are ±SEM. ***P<0.001 vs. the respective controls. […] LPS-treated WT PEMs were further briefly treated with pervanadate before testing for phagocytosis toward RBCs. Error bars are ±SEM. ***P<0.001 vs. the respective controls. […] Data presented in each panel represent at least three independent experiments with n≥4, if applicable.
Multiple pharmacological inhibitors were tested for their effects on LPS and cytokine-induced activation of macrophage phagocytosis toward self. […] For example, inhibition of JAKs blocked IL-6 and IL-17, but not LPS and TNFα, for activation of PEM phagocytosis. […]

The test system of assay [4] is splenic macrophages, PEMs and BMDMs. The experiment in a line: Ex vivo macrophage phagocytosis toward RBCs and other self-cells after activation. The note with it: various concentrations of IL-10. It is filed as cell-based, mouse. Here is the method: FIGS. 3A-3H include data related to our experiments assaying macrophage phagocytosis ex vivo. FIGS. 3A and 3B show macrophage phagocytosis of RBCs. Freshly isolated splenic macrophages (MØ) and peritoneal macrophages (PEM) and in vitro-derived BMDM (bone marrow-derived macrophages) were tested for phagocytosis toward CFSE-labeled Cd47^+ or Cd47^− RBCs. […] FIGS. 3F and 3G illustrate LPS and IL-17-activated PEM phagocytosis toward splenocytes (FIG. 3F), B16, and EL4 (FIG. 3G). Error bars are ±SEM. **P<0.01, ***P<0.001 vs. no treatment controls. […] PEM lavaged without (ctl.) or with Brewer thioglycollate (3%, i.p.) elicitation was tested. Error bars are ±SEM. ***P<0.001 vs. control PEM. Data presented in each panel represent at least three independent experiments with n≥4, if applicable.
FIGS. 4A-4E include data related to our experiments on macrophage phagocytic plasticity. FIG. 4A is a panel of illustrative line graphs showing that IL-10 inhibits macrophage phagocytosis toward “self.” PEMs were treated with LPS and activating cytokines along with various concentrations of IL-10 before testing their ability to phagocytose RBCs. FIG. 4B illustrates the phagocytic plasticity of WT red pulp macrophages. […] Treatments of cultured macrophages with LPS and IL-17 re-elicited their phagocytosis toward RBCs. […] Error bars are ±SEM. ***P<0.001 vs. freshly isolated splenic macrophages. FIG. 4D includes microscopic images of RBC phagocytosis by LPS- and IL-17-treated splenic macrophages. […] WT PEMs treated with LPS or IL-17 were further treated with Cd47^+ RBCs or Cd47-AP (10 min, 37° C.) followed by cell lysis, SIRPα immunoprecipitation, and WB detection of SIRPα phosphorylation (SIRPα^pY) and SHP-1 association. Data presented in each panel represent at least three independent experiments with n≥4, if applicable.
Ex vivo macrophage phagocytosis: Mouse spleens were harvested and minced in cold HBSS followed by passing through nylon meshes. The spleen cells in suspensions were collected by centrifugation followed by washing. After lysis of RBC, splenocytes were plated in cell culture dishes in DMEM with 10% FBS and cultured for 2 h followed by removal of non-adherent cells. The adherent cells, ˜70% being macrophages as determined by anti-F4/80 staining, were tested for phagocytosis. For phagocytosis of RBC or other tissue cells, targeted cells were labeled with CFSE prior to addition into the macrophage-containing wells. Macrophages and target cells, at a ratio of 1:5-10 for RBC or 1:1-2 for other cells, were co-incubated for 30 min at 37° C. followed by gently washing. Macrophage phagocytosis of target cells was then analyzed by fluorescence microscopy and/or by FACS. To better recognize macrophages, macrophages in wells were labeled with an anti-F4/80 or an anti-CD11b antibody. Alternatively, the freshly isolated splenocytes in suspension were incubated with CFSE-labeled RBC and other phagocytic targets for 30 min at 37° C. Macrophage phagocytosis was then determined by FACS after labeling macrophages with anti-F4/80. To test phagocytosis of apoptotic cells, B16 cells were irradiated by UV for 150 seconds at 50 J/m^2 strength. Apoptosis was analyzed at 2, 4, 6, 8 and 18 h post UV irradiation by labeling of the cells with anti-phosphatidylserine (PS) antibody (data not shown) or FITC-conjugated annexin V (data not shown). Cells that were confirmed to be apoptotic were trypsinized, labeled with CFSE, and then co-incubated with macrophages for 30 min at 37° C. After gentle washing, phagocytosis was analyzed by fluorescence microscopy and/or FACS. To test phagocytosis of bacteria and the fungal product zymosan, AlexaFluor-conjugated E.coli strain […] (2 μl suspension, ˜2 μg) or zymosan bioparticles (1 μl suspension, ˜2 μg) (both from Invitrogen) were incubated with macrophages for 30 min followed by washing and analyses. Similar procedures were performed to test phagocytosis of macrophages from various sources. […]

Regarding dextran sodium sulfate [DSS], the peripheral hemoglobin reduction in assay [1] is 40-50. Also, the “clearance of transferred CD47^+ and CD47^− RBCs” value in assay [2] is recorded as about 50%.

B1: IL-10: phagocytic suppressive cytokine (protein, UniProt P22301 19-178, looked up)
Interleukin-10: SPGQGTQSENSCTHFPGNLPNMLRDLRDAFSRVKTFFQMKDQLDNLLLKESLLEDFKGYLGCQALSEMIQFYLEEVMPQAENQDPDIKAHVNSLGENLKTLRLRLRRCHRFLPCENKSKAVEQVKNAFNKLQEKGIYKAMSEFDIFINYIEAYMTMKIRN
Turning to B1, the “Syk phosphorylation (Syk^PY, Y519/520)” value in assay [3] is listed as “counter-repressed Syk phosphorylation”. For the same molecule, in assay [4], the “LPS-, IL-17-, IL-6-, TNFα-, and IL-1β-induced activation of PEM phagocytosis toward RBCs” value is “dose-dependently inhibited”.

Values taken from patent US11026972B2, “Methods for generating macrophages with enhanced cancer phagocytosis” (Georgia State University Research Foundation, Inc., priority 2016, dated 2021).
